Columns and labels:
[1] = target: T1, CE-2 in lysed human breast cancer cells (MCF-7) (Homo sapiens, UniProt O00748); test: CE-2 activity on acetate esters in lysed MCF-7 cells, 1H NMR; assay type: biochemical; details: for k: 5 million lysed MCF-7 cells
T1 construct: endogenous in cells; host or cells: MCF-7 (sonicated lysate)
T1 sequence (O00748 27-559): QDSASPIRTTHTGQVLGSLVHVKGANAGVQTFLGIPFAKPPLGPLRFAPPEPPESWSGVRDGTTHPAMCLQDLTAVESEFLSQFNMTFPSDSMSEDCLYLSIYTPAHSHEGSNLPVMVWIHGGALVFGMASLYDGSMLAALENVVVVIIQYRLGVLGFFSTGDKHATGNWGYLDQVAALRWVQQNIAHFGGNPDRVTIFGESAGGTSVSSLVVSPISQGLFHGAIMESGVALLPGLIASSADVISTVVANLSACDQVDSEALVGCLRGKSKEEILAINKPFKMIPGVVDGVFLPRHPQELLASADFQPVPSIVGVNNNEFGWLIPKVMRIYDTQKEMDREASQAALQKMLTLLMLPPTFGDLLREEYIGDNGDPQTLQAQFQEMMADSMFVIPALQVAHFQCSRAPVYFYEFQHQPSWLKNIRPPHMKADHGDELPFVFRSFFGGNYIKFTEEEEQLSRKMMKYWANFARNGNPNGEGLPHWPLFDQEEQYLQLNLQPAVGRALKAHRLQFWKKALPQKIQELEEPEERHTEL
Protocol: Different classes of short chain esters, fulfilling the requirements for the hyperpolarization technique (stable, soluble, low molecular weight compounds (<400 Da), were evaluated as substrates for carboxyl esterases with the aim to identify esters as similar or better substrates for carboxyl esterases than 1,3-^13C2 ethyl acetoacetate. In most human cell types, including a wide range of cancer cells and lymphocytes, the activity of carboxyl esterase is dominated by the activities of isoforms 1 and 2 (CE-1 and CE-2). To measure exclusively the hydrolysis of carboxyl esterase from the CE-1 isoform, an isolated enzyme from porcine liver was applied. To measure almost exclusively the contribution of carboxyl esterase activity from the CE-2 isoform, human breast cancer cells (MCF-7) were employed. These cells are known from literature to express CE-2 but not to express CE-1 (Byun et al, 2008, Cancer letters 266:238-48). A group of esters was investigated as substrates for CE-1, which contained different structural features. […] Also esters with large alcohol groups and small acid groups were investigated. In this group, the acid part of the molecule was always acetate and different structural properties of the alcohol were investigated. These consisted of esters of un-substituted alcohols (examples ethyl acetate and butyl acetate), esters of branched chain alcohols (examples t-butyl acetate, ethyl 3-acetoxy butanoate and 2-acetoxy propionate), esters of aromatic alcohols (example benzyl acetate), esters of diols (example ethyleneglycol diacetate), esters of triols (example triacetin). Esters of alpha-keto acids were too unstable to be investigated in this assay. Esters of larger alcohols are not water soluble and therefore not relevant substrates for the purpose of the invention. Similarly, a group of esters which contained different structural features was investigated as substrates for CE-2. CE-2 substrates are described in the literature to consist of a small acid group and a larger alcohol group. All included esters were acetate esters (i.e. esters of acetic acid) in the interest of keeping the acid moiety the smallest possible. The acetate esters measured for CE-2 activity were therefore the same as those measured in the second group of possible substrates for CE-1. The CE-2 experiments were performed with lysed breast cancer cells (MCF-7). MCF-7 cells were grown in RPMI medium with 10% FBS and antibiotics. They were at confluence harvested by trypsination and washed once with 5 ml PBS. They were spun down and resuspended in PBS to a concentration of 20 mill. cells/ml. The cells were hereafter sonicated on ice (50% amplitude, 1 min, 3 sec pulse). 250 μl sonicated cell suspension was mixed with 250 μl 400 mM phosphate buffer pH 7.3. […] The substrate was added (50 μl, 60 mM) and the tube turned for mixing before it was inserted into the spectrometer. An initial spectrum was acquired and the sample was hereafter placed at 37° C. for 1 hour in a water bath. The sample was again inserted into the magnet and a second spectrum was recorded. The data was analysed with MNOVA software and measured as percentage conversion of substrate calculated to account for the amount of substrate converted over 60 min. The numbers are given in μmol/hour.

[2] = tested on: isolated CE-1 enzyme from porcine liver; test: CE-1 activity on short chain esters, 1H NMR; assay type: biochemical; details: 37° C.; for k: 26 μmol substrate, conversion over 60 min
Excerpt: To measure almost exclusively the contribution of carboxyl esterase activity from the CE-2 isoform, human breast cancer cells (MCF-7) were employed. These cells are known from literature to express CE-2 but not to express CE-1 (Byun et al, 2008, Cancer letters 266:238-48). A group of esters was investigated as substrates for CE-1, which contained different structural features. These consisted of esters of un-substituted acids (examples are ethyl acetate, ethyl butyrate, methyl butyrate), esters of acids substituted on C2 (examples are ethyl lactate and ethyl 2-acetoxy propanoate), esters of acids substituted on C3 (examples are ethyl 3-hydroxy butyrate and ethyl 3-acetoxy butanoate), esters of ring closed acids (example ethyl pyroglutamate), esters of di-acids (examples are diethyl succinate and dimethyl succinate), esters of tri-acids (example triethyl citrate), ethyl esters of beta-keto acids (example ethyl acetoacetate). Also esters with large alcohol groups and small acid groups were investigated. In this group, the acid part of the molecule was always acetate and different structural properties of the alcohol were investigated. These consisted of esters of un-substituted alcohols (examples ethyl acetate and butyl acetate), esters of branched chain alcohols (examples t-butyl acetate, ethyl 3-acetoxy butanoate and 2-acetoxy propionate), esters of aromatic alcohols (example benzyl acetate), esters of diols (example ethyleneglycol diacetate), esters of triols (example triacetin). […] Similarly, a group of esters which contained different structural features was investigated as substrates for CE-2. CE-2 substrates are described in the literature to consist of a small acid group and a larger alcohol group. All included esters were acetate esters (i.e. esters of acetic acid) in the interest of keeping the acid moiety the smallest possible. The acetate esters measured for CE-2 activity were therefore the same as those measured in the second group of possible substrates for CE-1.
The CE-1 experiments were performed with commercially available CE-1 from porcine liver. Individual samples of the substrates were all prepared the following way: 26 μmol was weighted in an eppendorf tube. 550 μl deuterated phosphate buffer (200 mM, pH 7.5) was added and the substrate was brought into solution by whirl mixing. The solution was transferred to a 5 mm NMR tube and inserted in the spectrometer at 37° C. A reference experiment was acquired on the substrate solution without enzyme after which 10 μl of an esterase stock solution (37 U/ml in deuterated phosphate buffer) was added in the top of the tube. The sample was mixed and returned to the spectrometer. A series of thermal 1D ^1H NMR experiments were recorded every 5 min for 60 min. The data were analysed with MNOVA software and measured as percentage conversion of substrate calculated to account for the amount of substrate converted over 60 min. The numbers are given in μmol/min.

k ([1]; 37° C., 1 hour) [µmol/min]	hydrolysis by CE-2, in words ([1]; lysed MCF-7 cells)	hydrolysis by CE-2, in words ([1]; lysed MCF-7 cells, listed as benzyl acetate)	k [2] [µmol/min]	Structure (SMILES)	k (μmol/min), acetate ester ([1]; hydrolysis of the acetate ester function, lysed MCF-7 cells, 37° C., 1 hour) [µmol/min]	k (μmol/min), acetate ester ([2]; hydrolysis of the acetate ester function, 60 min) [µmol/min]	k (μmol/min), ethyl ester ([2]; hydrolysis of the ethyl ester function, 60 min) [µmol/min]
1.05	hydrolysed particularly fast	the best	0.07	CC(=O)OCc1ccccc1 [Benzyl acetate]			
0.27	hydrolysed to a similar extent		0.02	CC(=O)OCC(COC(C)=O)OC(C)=O [Tri-acetin]			

Structure (SMILES)	k ([1]; 37° C., 1 hour) [µmol/min]	hydrolysis by CE-2, in words ([1]; lysed MCF-7 cells)	hydrolysis by CE-2, in words ([1]; lysed MCF-7 cells, listed as benzyl acetate)	k [2] [µmol/min]	k (μmol/min), acetate ester ([1]; hydrolysis of the acetate ester function, lysed MCF-7 cells, 37° C., 1 hour) [µmol/min]	k (μmol/min), acetate ester ([2]; hydrolysis of the acetate ester function, 60 min) [µmol/min]	k (μmol/min), ethyl ester ([2]; hydrolysis of the ethyl ester function, 60 min) [µmol/min]
CCOC(=O)CC(C)OC(C)=O (centres unmarked) [ethyl 3-acetoxy butanoate]		hydrolysed to a similar extent			0.18	0	0.08

From patent publication US20150133341A1, “Intra-Operative Cancer Diagnosis Based on a Hyperpolarized Marker” (ALBEDA INNOVATIONS APS, priority 2012, published 2015)
